In brackets after ≈: the same amount, converted by molar mass. Non-standard residues stand in square brackets, D forms with d. Residues, ends and D or L forms follow the SMILES beside them. *: point of attachment. 1Nal = N[C@@H](Cc1cccc2ccccc12)C(=O)O; Lauroyl = CCCCCCCCCCCC(=O)*
Experiments:
Assay type in all cases: cell-based
[1] = system: Pseudomonas aeruginosa ATCC 27853; assay: MIC, NCCLS M7-A6 broth microdilution (Table 9, no superscript); settings: ATCC 27853
Method in brief: (§1)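 Values come from a broth microdilution assay run in cation-adjusted Mueller Hinton broth with an inoculum of 5×10^5 to 1×10^6 CFU/milliliter, incubated overnight at 37° C and read as absence of visible turbidity.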

[2] = system: Staphylococcus epidermidis ATCC 12228; assay: as above; settings: ATCC 12228
Method in brief: as §1

Salmonella dublin (Lane) = assay: as above
Method in brief: as §1

[3] = system: Escherichia coli ATCC 25922; assay: as above; settings: ATCC 25922
Method in brief: as §1

[4] = system: Staphylococcus aureus ATCC 29213; assay: MIC, NCCLS M7-A6 broth microdilution, cation-adjusted Mueller Hinton broth (Table 9, no superscript); settings: ATCC 29213
Method in brief: as §1

[5] = system: Propionibacterium acnes ATCC 6919; assay: MIC, agar dilution method NCCLS M11-A6, Brucella agar, anaerobic (Table 9, superscript c); settings: ATCC 6919
Experimental: A bacterial suspension was prepared to allow for a final inoculum on the plate of 1.5×10^8 CFU/milliliter. After the suspension absorbed into the agar surface, the plates were incubated for 48-96 hours at 37° C. in a GasPak anaerobic chamber. The lowest concentration of peptide that contained no colony growth on the agar plate was determined as the MIC. MIC values that utilized this method of MIC determination are indicated in Table 9 with a superscript letter “c.”

MIC P. aeruginosa [1] | MIC S. epidermidis [2] | MIC S. dublin (Salmonella dublin (Lane)) | MIC E. coli [3] | MIC S. aureus [4] | MIC P. acnes [5] | Structure (SMILES)
64 µg/mL (≈ 36.4 µM) | 2 µg/mL (≈ 1.14 µM) | 4 µg/mL (≈ 2.28 µM) | 8 µg/mL (≈ 4.55 µM) | 4 µg/mL (≈ 2.28 µM) | 4c ug/mL | CCCCCCCCCCCC(=O)N[C@H](CCCNC(=N)N)C(=O)N[C@H](CO)C(=O)N[C@H](CCCNC(=N)N)C(=O)N[C@H](Cc1c[nH]c2ccccc12)C(=O)N[C@H](CCCNC(=N)N)C(=O)N[C@H](CC(=O)O)C(=O)N[C@@H](C(=O)N[C@H](C)C(=O)N[C@H](CCCNC(=N)N)C(=O)N[C@H](CC(N)=O)C(=O)N[C@H](Cc1ccccc1)C(=O)N[C@H](CC(C)C)C(N)=O)C(C)C [Peptide 211, Lauryl-rsrwrdvarnfl-NH2] (Lauroyl-[dR][dS][dR][dW][dR][dD][dV][dA][dR][dN][dF][dL]-NH2)
16 µg/mL (≈ 8.43 µM) | 2 µg/mL (≈ 1.05 µM) | 4 µg/mL (≈ 2.11 µM) | 8 µg/mL (≈ 4.22 µM) | 2 µg/mL (≈ 1.05 µM) | 32c ug/mL | CCCCCCCCCCCC(=O)N[C@H](CCCNC(=N)N)C(=O)N[C@H](C)C(=O)N[C@H](CCCNC(=N)N)C(=O)N[C@H](Cc1c[nH]c2ccccc12)C(=O)N[C@H](CCCNC(=N)N)C(=O)N[C@H](CC(=O)O)C(=O)N[C@@H](C(=O)N[C@H](C)C(=O)N[C@H](CCCNC(=N)N)C(=O)N[C@H](CC(N)=O)C(=O)N[C@H](Cc1ccccc1)C(=O)N[C@H](CC(C)C)C(=O)N[C@H](CCCNC(=N)N)C(N)=O)C(C)C [Peptide 224, Lauryl-rarwrdvarnflr-NH2] (Lauroyl-[dR][dA][dR][dW][dR][dD][dV][dA][dR][dN][dF][dL][dR]-NH2)
8 µg/mL (≈ 7.21 µM) | 2 µg/mL (≈ 1.8 µM) | 32 µg/mL (≈ 28.8 µM) | 16 µg/mL (≈ 14.4 µM) | 2 µg/mL (≈ 1.8 µM) | 64c ug/mL | CCCCCCCCCCCC(=O)N[C@@H](CCCNC(=N)N)C(=O)N[C@@H](Cc1c[nH]c2ccccc12)C(=O)N[C@@H](CCCNC(=N)N)C(=O)N[C@@H](C)C(=O)N[C@@H](CC(C)C)C(=O)N[C@@H](C)C(=O)N[C@@H](CCCNC(=N)N)C(N)=O [Peptide 242, Lauryl-RWRALAR-NH2] (Lauroyl-RWRALAR-NH2)
32 µg/mL (≈ 27.7 µM) | 8 µg/mL (≈ 6.94 µM) | 16 µg/mL (≈ 13.9 µM) | 32 µg/mL (≈ 27.7 µM) | 4 µg/mL (≈ 3.47 µM) | 64c ug/mL | CCCCCCCCCCCC(=O)N[C@@H](CCCNC(=N)N)C(=O)N[C@@H](Cc1c[nH]c2ccccc12)C(=O)N[C@@H](CCCNC(=N)N)C(=O)N[C@@H](CC(=O)O)C(=O)N[C@@H](CC(C)C)C(=O)N[C@@H](C)C(=O)N[C@@H](CCCNC(=N)N)C(N)=O [Peptide 241, Lauryl-RWRDLAR-NH2] (Lauroyl-RWRDLAR-NH2)
16 µg/mL (≈ 8.36 µM) | 2 µg/mL (≈ 1.05 µM) | 4 µg/mL (≈ 2.09 µM) | 8 µg/mL (≈ 4.18 µM) | 4 µg/mL (≈ 2.09 µM) | 8c ug/mL | CCCCCCCCCCCC(=O)N[C@H](CCCNC(=N)N)C(=O)N[C@H](CO)C(=O)N[C@H](CCCNC(=N)N)C(=O)N[C@H](Cc1c[nH]c2ccccc12)C(=O)N[C@H](CCCNC(=N)N)C(=O)N[C@H](CC(=O)O)C(=O)N[C@@H](C(=O)N[C@H](C)C(=O)N[C@H](CCCNC(=N)N)C(=O)N[C@H](CC(N)=O)C(=O)N[C@H](Cc1ccccc1)C(=O)N[C@H](CC(C)C)C(=O)N[C@H](CCCNC(=N)N)C(N)=O)C(C)C [Peptide 210, Lauryl-rsrwrdvarnflr-NH2] (Lauroyl-[dR][dS][dR][dW][dR][dD][dV][dA][dR][dN][dF][dL][dR]-NH2)

The next lines start with the compound.

Structure (SMILES) | MIC P. aeruginosa [1] | MIC S. epidermidis [2] | MIC S. dublin (Salmonella dublin (Lane)) | MIC E. coli [3] | MIC S. aureus [4] | MIC P. acnes [5]
CCCCCCCCCCCC(=O)N[C@@H](C(=O)N[C@H](CCCNC(=N)N)C(=O)N[C@@H](C(=O)N[C@H](CO)C(=O)N[C@H](CCCNC(=N)N)C(=O)N[C@@H](C(=O)NCC(=O)N[C@H](CCCNC(=N)N)C(=O)N[C@H](CO)C(=O)N[C@H](CCCNC(=N)N)C(=O)N[C@H](Cc1c[nH]c2ccccc12)C(=O)N[C@H](CCCNC(=N)N)C(=O)N[C@H](CC(=O)O)C(=O)N[C@H](Cc1c[nH]c2ccccc12)C(=O)N[C@H](CO)C(=O)N[C@H](CCCNC(=N)N)C(=O)N[C@H](CC(N)=O)C(=O)N[C@H](Cc1ccccc1)C(=O)N[C@H](CCSC)C(=O)N[C@H](CCCNC(=N)N)C(=O)N[C@H](C)C(=O)N[C@H](C)C(=O)N[C@@H](CCCCN)C(N)=O)[C@H](C)O)C(C)C)[C@H](C)O [Peptide 80, Lauryl-trvsrtgrsrwrdwsrnfmraaK-NH2] (Lauroyl-[dT][dR][dV][dS][dR][dT]G[dR][dS][dR][dW][dR][dD][dW][dS][dR][dN][dF][dM][dR][dA][dA]K-NH2) | >64 µg/mL | 2 µg/mL (≈ 0.653 µM) | 16 µg/mL (≈ 5.22 µM) | 32 µg/mL (≈ 10.4 µM) | 16 µg/mL (≈ 5.22 µM) | >64c ug/mL
CCCCCCCCCCCC(=O)N[C@H](CCCNC(=N)N)C(=O)N[C@H](CC(C)C)C(=O)N[C@H](CCCNC(=N)N)C(=O)N[C@H](Cc1c[nH]c2ccccc12)C(=O)N[C@H](CCCNC(=N)N)C(=O)N[C@H](CCC(=O)O)C(=O)N[C@@H](C(=O)N[C@H](C)C(=O)N[C@H](CCCNC(=N)N)C(=O)N[C@H](CC(C)C)C(=O)N[C@H](Cc1ccccc1)C(=O)N[C@H](CC(C)C)C(=O)N[C@H](CCCNC(=N)N)C(N)=O)C(C)C [Peptide 227, Lauryl-rlrwrevarlflr-NH2] (Lauroyl-[dR][dL][dR][dW][dR][dE][dV][dA][dR][dL][dF][dL][dR]-NH2) | >64 µg/mL | 32 µg/mL (≈ 16.4 µM) | 32 µg/mL (≈ 16.4 µM) | 64 µg/mL (≈ 32.8 µM) | 32 µg/mL (≈ 16.4 µM) | >64c ug/mL
CCCCCCCCCCCC(=O)N[C@H](CCCNC(=N)N)C(=O)N[C@H](CO)C(=O)N[C@H](CCCNC(=N)N)C(=O)N[C@H](Cc1c[nH]c2ccccc12)C(=O)N[C@H](CCCNC(=N)N)C(=O)N[C@H](CC(=O)O)C(=O)N[C@H](CO)C(=O)N[C@H](C)C(=O)N[C@H](CCCNC(=N)N)C(=O)N[C@H](CC(N)=O)C(=O)N[C@H](Cc1ccccc1)C(=O)N[C@H](CCSC)C(=O)N[C@H](CCCNC(=N)N)C(N)=O [Peptide 233, Lauryl-rsrwrdsarnfmr-NH2] (Lauroyl-[dR][dS][dR][dW][dR][dD][dS][dA][dR][dN][dF][dM][dR]-NH2) | 64 µg/mL (≈ 33.3 µM) | 16 µg/mL (≈ 8.34 µM) | >64 µg/mL | 16 µg/mL (≈ 8.34 µM) | 16 µg/mL (≈ 8.34 µM) | 16c ug/mL
CCCCCCCCCCCC(=O)N[C@@H](CCCNC(=N)N)C(=O)N[C@@H](CO)C(=O)N[C@@H](CCCNC(=N)N)C(=O)N[C@@H](Cc1c[nH]c2ccccc12)C(=O)N[C@@H](CCCNC(=N)N)C(=O)N[C@@H](CC(=O)O)C(=O)N[C@@H](Cc1cccc2ccccc12)C(=O)N[C@@H](C)C(=O)N[C@@H](CCCNC(=N)N)C(=O)N[C@@H](CC(N)=O)C(=O)N[C@@H](Cc1ccccc1)C(=O)N[C@@H](CCSC)C(=O)N[C@@H](CCCNC(=N)N)C(N)=O [Peptide 150, Lauryl-RSRWRDZARNFMR-NH2 Z = 1-naphthylalanine] (Lauroyl-RSRWRD[1Nal]ARNFMR-NH2) | >64 µg/mL | 4 µg/mL (≈ 1.97 µM) | 32 µg/mL (≈ 15.8 µM) | 64 µg/mL (≈ 31.5 µM) | 8 µg/mL (≈ 3.94 µM) | >64c ug/mL

Reference: patent publication US20050282755A1, “Compositions having antimicrobial activity and uses thereof” (priority 2004, published 2005)
